Experimental data: article PMC5856786, “A DHODH inhibitor increases p53 synthesis and enhances tumor cell killing by p53 degradation blockage” (Nature Communications, 2018)

Legend:
[1] = target: T1, recombinant human DHODH (Homo sapiens, UniProt Q02127); experiment: Kinetic DHODH enzyme assay (3,4-dimethoxy-5-methyl-p-benzoquinone, DCIP); assay type: biochemical; parameters: made in house; conditions: Fig. 5a; average of three independent repeats ± SD
Protocol: In Fig. 5a enzyme assays were optimized and performed with 6 nM recombinant human DHODH prepared as described. The reaction mixture for these kinetic assays consisted of 1 mM DL-dihydroorotic acid, 100 µM 3,4-dimethoxy-5-methyl-p-benzoquinone (#D9150, Sigma-Aldrich), and 100 µM DCIP in enzyme buffer. A stock solution of 20 mM DCIP was prepared in enzyme buffer and filtered through filter paper (20–25 μm pore size) just before use. Loss in absorbance by DCIP was measured at 595 nm at RT in a stepped time course (8 × 2 min, 8 × 3 min, 6 × 5 min). […] Therefore, for each concentration of inhibitor tested, a value for DHODH’s Vmax was estimated by linear regression within this time frame.
Target sequence in this assay (Q02127 29-395 limits assumed): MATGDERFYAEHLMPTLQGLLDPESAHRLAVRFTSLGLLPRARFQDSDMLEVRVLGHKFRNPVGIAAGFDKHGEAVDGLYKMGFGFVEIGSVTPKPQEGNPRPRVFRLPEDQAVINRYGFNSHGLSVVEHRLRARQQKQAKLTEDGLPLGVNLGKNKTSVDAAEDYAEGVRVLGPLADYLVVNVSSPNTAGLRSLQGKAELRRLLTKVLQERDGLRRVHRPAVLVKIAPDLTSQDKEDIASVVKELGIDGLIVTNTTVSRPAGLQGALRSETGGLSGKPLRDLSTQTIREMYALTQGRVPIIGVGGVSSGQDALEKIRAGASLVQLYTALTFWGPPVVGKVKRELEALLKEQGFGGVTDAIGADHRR

[2] = tested on: ARN8 cells; experiment: SRB growth/viability assay, ARN8; assay type: cell-based, human; conditions: ARN8; Fig. 4e
Protocol: SRB assays measuring protein content were performed in 96-well plates as previously described.

[3] = target: T1, recombinant human DHODH; experiment: Endpoint DHODH enzyme assay (coenzyme Q10, DCIP); assay type: biochemical; parameters: purchased Prospecbio ENZ-642; conditions: compound at 10 µM; Supplementary Table 5, 20,000 compound library
Protocol: In Supplementary Tables 5 and 6, endpoint assays were performed with 10 nM recombinant human DHODH (#ENZ-642, Prospecbio). The reaction mixture consisted of 624.6 µM DL-dihydroorotic acid, 66.4 µM coenzyme Q10, 66.4 µM 2,6-dichlorophenolindophenol sodium salt (DCIP) (all reagents purchased from Sigma-Aldrich) in enzyme buffer (50 mM Tris-HCl, pH 8.0, 0.1% Triton X-100, 150 mM KCl). Loss in absorbance by DCIP was measured at 595 nm after incubation at RT for 60 min.
Target sequence in this assay (Q02127 31-395 limits assumed): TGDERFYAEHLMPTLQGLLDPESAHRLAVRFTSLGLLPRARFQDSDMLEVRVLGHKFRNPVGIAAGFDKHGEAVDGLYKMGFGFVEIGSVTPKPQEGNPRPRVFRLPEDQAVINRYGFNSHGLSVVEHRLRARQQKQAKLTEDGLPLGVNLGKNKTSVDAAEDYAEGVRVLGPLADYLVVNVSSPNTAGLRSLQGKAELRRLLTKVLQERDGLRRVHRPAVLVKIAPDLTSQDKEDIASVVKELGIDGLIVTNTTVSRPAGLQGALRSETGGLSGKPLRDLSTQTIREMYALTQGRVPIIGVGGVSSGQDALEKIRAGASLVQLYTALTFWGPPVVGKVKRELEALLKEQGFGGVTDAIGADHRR

SMILES | remaining activity at 10 µM [3] [%] | further results
O=C(N[C@H]1CCCc2c1cnn2-c1ccccc1F)c1onc2c1CCCC2 [(S)-HZ05] |  | IC50 [1]: 6.7 ± 0.67 µM
O=C(NC1CCCc2c1cnn2-c1ccc(F)cc1F)c1onc2c1CCCC2 (stereo not shown) [HZ02] |  | IC50 [1]: 0.289 ± 0.046 µM
Cc1ccc(-n2ncc3c2CC(C)(C)CC3NC(=O)c2ccccn2)cc1 (stereo not shown) [HZ25] |  | IC50 [1]: > 10 µM
Cc1c(-c2ccc(-c3ccccc3F)cc2)nc2ccc(F)cc2c1C(=O)O [brequinar, reference compound] |  | effects on ARN8 growth and p53-dependent transcription ± uridine compared with HZ00 [2]: phenocopied the effects of HZ00
CCOc1cc(C=Cc2ccc3cccc(OC(=O)CC)c3n2)ccc1OC(=O)CC [compound 7706999, 2-{2-[3-ethoxy-4-(propionyloxy)phenyl]vinyl}-8-quinolinyl propionate] | 98.2 | 
Cc1ccc(CSCC(=O)Nc2ccccc2C(=O)O)cc1 [compound 7723007, 2-({[(4-methylbenzyl)thio]acetyl}amino)benzoic acid] | -8.22 | 
O=C(Nc1cc(C(F)(F)F)cc(C(F)(F)F)c1)c1c(F)c(F)c(F)c(F)c1F [compound 7739721, N-[3,5-bis(trifluoromethyl)phenyl]-2,3,4,5,6-pentafluorobenzamide] | 98.2 | 
Oc1ccccc1-c1nc(C=Cc2cccs2)n[nH]1 [compound 7776857, 2-{3-[2-(2-thienyl)vinyl]-1H-1,2,4-triazol-5-yl}phenol] | 77.3 | 
Cc1cc(O)ccc1NC(=O)c1ccc(-c2ccccc2)cc1 [compound 7782544, N-(4-hydroxy-2-methylphenyl)-4-biphenylcarboxamide] | 73.5 | 
NC(=O)c1ccccc1NC(=O)Nc1ccccc1C(F)(F)F [compound 7794325, 2-[({[2-(trifluoromethyl)phenyl]amino}carbonyl)amino]benzamide] | 92.2 | 
CC(C)Oc1ccccc1C1CC(=O)Nc2cc3c(cc21)OCCO3 (stereo not shown) [compound 7800701, 9-(2-isopropoxyphenyl)-2,3,8,9-tetrahydro[1,4]dioxino[2,3-g]quinolin-7(6H)-one] | 88.1 | 
COC(=O)c1cccc(NC(=S)Nc2cc(Cl)ccc2OC)c1 [compound 7801595, methyl 3-({[(5-chloro-2-methoxyphenyl)amino]carbonothioyl}amino)benzoate] | 100 | 
O=C1CC(c2ccccc2OCc2ccccc2)c2cc3c(cc2N1)OCCO3 (stereo not shown) [compound 7834586, 9-[2-(benzyloxy)phenyl]-2,3,8,9-tetrahydro[1,4]dioxino[2,3-g]quinolin-7(6H)-one] | 103 | 
Cc1cc(=O)oc2cc(NC(=S)N3c4ccccc4CC3C)ccc12 (stereo not shown) [compound 7841649, 2-methyl-N-(4-methyl-2-oxo-2H-chromen-7-yl)-1-indolinecarbothioamide] | 3.65 | 
Cc1ccc(-c2nc(CN3CCCCC3c3nccs3)c(C)o2)o1 (stereo not shown) [compound 47561416, 1-{[5-methyl-2-(5-methyl-2-furyl)-1,3-oxazol-4-yl]methyl}-2-(1,3-thiazol-2-yl)piperidine] | 86.3 | 
COc1ccc(-c2nc(CN3CCCC3c3ccccc3OC)c(C)o2)cc1C (stereo not shown) [compound 47870602, 2-(4-methoxy-3-methylphenyl)-4-{[2-(2-methoxyphenyl)-1-pyrrolidinyl]methyl}-5-methyl-1,3-oxazole] |  | remaining DHODH activity (%) Average [3]: 10.68%
CC(C)c1nc(C(=O)N2CCC3(CCCN(CCc4ccccc4)C3)C2)cs1 (stereo not shown) [compound 51157786, 2-[(2-isopropyl-1,3-thiazol-4-yl)carbonyl]-7-(2-phenylethyl)-2,7-diazaspiro[4.5]decane] | -5.48 | 
Cc1ccccc1-c1noc(-c2ccc(N3CCC[C@H]3CO)nc2)n1 [compound 54631106, ((2S)-1-{5-[3-(2-methylphenyl)-1,2,4-oxadiazol-5-yl]-2-pyridinyl}-2-pyrrolidinyl)methanol] |  | remaining DHODH activity (%) Average [3]: 5.94%
CCC(C)Nc1ccc(-c2nc(-c3cccc(OC)c3OC)no2)cn1 (stereo not shown) [compound 55410102, N-(sec-butyl)-5-[3-(2,3-dimethoxyphenyl)-1,2,4-oxadiazol-5-yl]-2-pyridinamine] | 2.28 | 
CCN(CC)c1ccc(-c2nc(-c3cccc(OC)c3OC)no2)cn1 [compound 57235883, 5-[3-(2,3-dimethoxyphenyl)-1,2,4-oxadiazol-5-yl]-N,N-diethyl-2-pyridinamine] | 9.4 | 
COc1cccc(-c2noc(-c3ccc(N4CCCCC4)nc3)n2)c1OC [compound 57999135, 5-[3-(2,3-dimethoxyphenyl)-1,2,4-oxadiazol-5-yl]-2-(1-piperidinyl)pyridine] | 16.7 | 
COc1ccc(C2c3[nH]c4ccccc4c3CCN2Cc2ccoc2)c(F)c1 (stereo not drawn) [compound 76026685, 1-(2-fluoro-4-methoxyphenyl)-2-(3-furylmethyl)-2,3,4,9-tetrahydro-1H-beta-carboline] | 88.5 | 
COc1cccc(-c2noc(-c3ccc(N4CCCC(O)C4)nc3)n2)c1OC (stereo not shown) [compound 78928129, 1-{5-[3-(2,3-dimethoxyphenyl)-1,2,4-oxadiazol-5-yl]-2-pyridinyl}-3-piperidinol] | 42.3 | 
COc1ccc(C2c3[nH]c4ccccc4c3CCN2Cc2nccs2)cc1C (stereo not drawn) [compound 90739158, 1-(4-methoxy-3-methylphenyl)-2-(1,3-thiazol-2-ylmethyl)-2,3,4,9-tetrahydro-1H-beta-carboline] |  | remaining DHODH activity (%) Average [3]: 91.88%
C/C(O)=C(\C#N)C(=O)Nc1ccc(C(F)(F)F)cc1 [teriflunomide, reference compound] |  | effects on ARN8 growth and p53-dependent transcription ± uridine compared with HZ00 [2]: phenocopied the effects of HZ00
